Measurements as given in patent publication US20230295200A1 (REGENTS OF THE UNIVERSITY OF MICHIGAN, priority 2022, published 2023).

Biological target: T1, STAT6 protein (Homo sapiens, UniProt P42226)
T1 sequence (P42226 1-847): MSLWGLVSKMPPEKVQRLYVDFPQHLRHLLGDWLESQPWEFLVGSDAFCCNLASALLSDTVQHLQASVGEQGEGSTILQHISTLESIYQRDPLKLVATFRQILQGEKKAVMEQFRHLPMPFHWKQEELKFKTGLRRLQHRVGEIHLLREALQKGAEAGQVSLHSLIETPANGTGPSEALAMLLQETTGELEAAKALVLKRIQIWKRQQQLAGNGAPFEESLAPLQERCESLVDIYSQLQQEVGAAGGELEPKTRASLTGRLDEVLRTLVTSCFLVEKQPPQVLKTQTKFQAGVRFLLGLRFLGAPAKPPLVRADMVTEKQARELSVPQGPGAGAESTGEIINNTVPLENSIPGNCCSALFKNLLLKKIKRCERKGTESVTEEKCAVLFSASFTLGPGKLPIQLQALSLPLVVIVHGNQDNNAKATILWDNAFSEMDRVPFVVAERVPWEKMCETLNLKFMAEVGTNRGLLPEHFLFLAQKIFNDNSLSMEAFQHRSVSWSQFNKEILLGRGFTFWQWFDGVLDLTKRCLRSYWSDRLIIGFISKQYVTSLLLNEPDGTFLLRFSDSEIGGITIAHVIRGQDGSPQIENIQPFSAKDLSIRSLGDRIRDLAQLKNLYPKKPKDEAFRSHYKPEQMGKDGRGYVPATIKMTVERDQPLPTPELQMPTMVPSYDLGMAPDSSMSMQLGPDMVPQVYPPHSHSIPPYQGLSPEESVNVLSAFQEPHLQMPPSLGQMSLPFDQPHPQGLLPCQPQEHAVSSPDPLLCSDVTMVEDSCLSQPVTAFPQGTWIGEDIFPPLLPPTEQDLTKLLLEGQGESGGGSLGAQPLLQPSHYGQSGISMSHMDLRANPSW
Assay: Fluorescence polarization (FP) binding assay, STAT6
Conditions: not given
In short: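 5 nM fluorescein tracer + 200 nM STAT protein; PBS pH 7.4, 0.01% BGG, 0.01% Tween-20, 2 mM DTT; shake 15 min, 1 h RT equilibrium; FP read; nonlinear fit for inhibition constants.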

Row | SMILES | Ki
1 | CCOP(=O)(O)C(F)(F)c1ccc2sc(C(=O)N[C@H]3CN(C(C)=O)CC[C@H]4CC[C@@H](C(=O)N5CCCC56CCCC6)N4C3=O)cc2c1 [Compound 386, ethyl hydrogen ((2-(((5S,8S,10aR)-3-acetyl-6-oxo-8-(1-azaspiro[4.4]nonane-1-carbonyl)decahydropyrrolo[1,2-a][1,5]diazocin-5-yl)carbamoyl)benzo[b]thiophen-5-yl)difluoromethyl)phosphonate] | > 10 µM

Same assay, conditions: FP competition, 5 nM fluorescein-labeled tracer, 200 nM protein, PBS pH7.4; read-out: Binding STAT6

Row | SMILES | Ki
2 | CC(=O)N1CC[C@H]2CC[C@@H](C(=O)N3CCC4(CCCCCC4)C3)N2C(=O)[C@@H](NC(=O)c2cc3cc(C(F)(F)P(=O)(O)O)ccc3s2)C1 [Compound 385, ((2-(((5S,8S,10aR)-3-acetyl-6-oxo-8-(2-azaspiro[4.6]undecane-2-carbonyl)decahydropyrrolo[1,2-a][1,5]diazocin-5-yl)carbamoyl)benzo[b]thiophen-5-yl)difluoromethyl)phosphonic acid] | > 10 µM
3 | CC(=O)N1CC[C@H]2CC[C@@H](C(=O)N3CCCC34CCCC4)N2C(=O)[C@@H](NC(=O)c2cc3cc(C(F)(F)P(=O)(O)O)ccc3s2)C1 [Compound 387, ((2-(((5S,8S,10aR)-3-acetyl-6-oxo-8-(1-azaspiro[4.4]nonane-1-carbonyl)decahydropyrrolo[1,2-a][1,5]diazocin-5-yl)carbamoyl)benzo[b]thiophen-5-yl)difluoromethyl)phosphonic acid] | > 10 µM
4 | CCN(C(=O)[C@@H]1CC[C@@H]2CCN(C(C)=O)C[C@H](NC(=O)c3cc4cc(C(F)(F)P(=O)(O)O)ccc4s3)C(=O)N21)c1ccc(Cl)cc1 [Compound 388, ((2-(((5S,8S,10aR)-3-acetyl-8-((4-chlorophenyl)(ethyl)carbamoyl)-6-oxodecahydropyrrolo[1,2-a][1,5]diazocin-5-yl)carbamoyl)benzo[b]thiophen-5-yl)difluoromethyl)phosphonic acid] | > 10 µM
5 | CC(=O)N1CC[C@H]2CC[C@@H](C(=O)N(c3ccc(Cl)cc3)C(C)C)N2C(=O)[C@@H](NC(=O)c2cc3cc(C(F)(F)P(=O)(O)O)ccc3s2)C1 [Compound 389, ((2-(((5S,8S,10aR)-3-acetyl-8-((4-chlorophenyl)(isopropyl)carbamoyl)-6-oxodecahydropyrrolo[1,2-a][1,5]diazocin-5-yl)carbamoyl)benzo[b]thiophen-5-yl)difluoromethyl)phosphonic acid] | 1 to 10 µM
6 | CC(=O)N1CC[C@H]2CC[C@@H](C(=O)N3CCC(C)(C(C)C)C3)N2C(=O)[C@@H](NC(=O)c2cc3cc(C(F)(F)P(=O)(O)O)ccc3s2)C1 (stereo partly drawn) [Compound 390, ((2-(((5S,8S,10aR)-3-acetyl-8-(3-isopropyl-3-methylpyrrolidine-1-carbonyl)-6-oxodecahydropyrrolo[1,2-a][1,5]diazocin-5-yl)carbamoyl)benzo[b]thiophen-5-yl)difluoromethyl)phosphonic acid] | > 10 µM
7 | CC(=O)N1CC[C@H]2CC[C@@H](C(=O)N3CCCCC4(CCCC4)C3)N2C(=O)[C@@H](NC(=O)c2cc3cc(C(F)(F)P(=O)(O)O)ccc3s2)C1 [Compound 391, ((2-(((5S,85,10aR)-3-acetyl-6-oxo-8-(7-azaspiro[4.6]undecane-7-carbonyl)decahydropyrrolo[1,2-a][1,5]diazocin-5-yl)carbamoyl)benzo[b]thiophen-5-yl)difluoromethyl)phosphonic acid] | > 10 µM
8 | CC(=O)N1CC[C@H]2CC[C@@H](C(=O)N3CCC(C(N)=O)(C(F)(F)F)C3)N2C(=O)[C@@H](NC(=O)c2cc3cc(C(F)(F)P(=O)(O)O)ccc3s2)C1 (stereo partly drawn) [Compound 392, ((2-(((5S,8S,10aR)-3-acetyl-8-(3-carbamoyl-3-(trifluoromethyl)pyrrolidine-1-carbonyl)-6-oxodecahydropyrrolo[1,2-a][1,5]diazocin-5-yl)carbamoyl)benzo[b]thiophen-5-yl)difluoromethyl)phosphonic acid] | > 10 µM
9 | CC(=O)N1CC[C@H]2CC[C@@H](C(=O)N3CCC(C)(c4ccccc4)C3)N2C(=O)[C@@H](NC(=O)c2cc3cc(C(F)(F)P(=O)(O)O)ccc3s2)C1 (stereo partly drawn) [Compound 393, ((2-(((5S,8S,10aR)-3-acetyl-8-(3-methyl-3-phenylpyrrolidine-1-carbonyl)-6-oxodecahydropyrrolo[1,2-a][1,5]diazocin-5-yl)carbamoyl)benzo[b]thiophen-5-yl)difluoromethyl)phosphonic acid] | > 10 µM
10 | CC(=O)N1CC[C@H]2CC[C@@H](C(=O)N(C)c3ccc(Br)cc3)N2C(=O)[C@@H](NC(=O)c2cc3cc(C(F)(F)P(=O)(O)O)ccc3s2)C1 [Compound 394, ((2-(((5S,8S,10aR)-3-acetyl-8-((4-bromophenyl)(methyl)carbamoyl)-6-oxodecahydropyrrolo[1,2-a][1,5]diazocin-5-yl)carbamoyl)benzo[b]thiophen-5-yl)difluoromethyl)phosphonic acid] | > 10 µM
11 | CC(=O)N1CC[C@H]2CC[C@@H](C(=O)N3CCC(C)(C4CC4)C3)N2C(=O)[C@@H](NC(=O)c2cc3cc(C(F)(F)P(=O)(O)O)ccc3s2)C1 (stereo partly drawn) [Compound 395, ((2-(((5S,8S,10aR)-3-acetyl-8-(3-cyclopropyl-3-methylpyrrolidine-1-carbonyl)-6-oxodecahydropyrrolo[1,2-a][1,5]diazocin-5-yl)carbamoyl)benzo[b]thiophen-5-yl)difluoromethyl)phosphonic acid] | > 10 µM

Biological target: T2, STAT5A (Homo sapiens, UniProt P42229)
T2 sequence (P42229 1-794): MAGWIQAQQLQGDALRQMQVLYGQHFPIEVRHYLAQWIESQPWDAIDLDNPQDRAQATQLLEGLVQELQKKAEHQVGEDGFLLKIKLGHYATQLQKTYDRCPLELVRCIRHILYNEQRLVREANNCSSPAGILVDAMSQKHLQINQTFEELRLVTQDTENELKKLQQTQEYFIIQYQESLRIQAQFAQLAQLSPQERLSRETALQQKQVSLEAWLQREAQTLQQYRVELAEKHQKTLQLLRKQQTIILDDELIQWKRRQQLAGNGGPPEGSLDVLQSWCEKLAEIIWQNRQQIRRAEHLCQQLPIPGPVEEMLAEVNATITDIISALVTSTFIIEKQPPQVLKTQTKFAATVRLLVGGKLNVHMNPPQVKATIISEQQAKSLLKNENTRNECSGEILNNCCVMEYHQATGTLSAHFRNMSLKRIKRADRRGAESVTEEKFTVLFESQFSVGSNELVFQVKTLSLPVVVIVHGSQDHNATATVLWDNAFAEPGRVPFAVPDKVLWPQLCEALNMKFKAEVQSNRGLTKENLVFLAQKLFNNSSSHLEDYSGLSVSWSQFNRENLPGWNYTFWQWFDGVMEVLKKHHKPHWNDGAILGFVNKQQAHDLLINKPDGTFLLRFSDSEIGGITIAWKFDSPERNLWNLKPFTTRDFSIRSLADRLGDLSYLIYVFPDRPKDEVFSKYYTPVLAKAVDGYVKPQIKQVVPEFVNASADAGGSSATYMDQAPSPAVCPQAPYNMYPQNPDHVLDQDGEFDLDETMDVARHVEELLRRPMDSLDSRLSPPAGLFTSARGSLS
Assay: Fluorescence polarization (FP) binding assay, STAT5A
Conditions: FP competition, 5 nM fluorescein-labeled tracer, 200 nM protein, PBS pH7.4
Experimental: Evaluation of the activity of the inhibitors may be accomplished by fluorescence polarization (FP) experiments. A representative general protocol is the following:
Fluorescence polarization (FP) experiments are performed in black round-bottom plates using the CLARIOstar microplate reader. To each well, fluorescein-labeled tracer and STAT5 or STAT6 protein are added in assay buffer. […] The inhibition constants are determined as the concentration of the STAT5 or STAT6 at which 50% of the ligand is bound.
Fluorescence polarization (FP) experiments were performed in 96-well, black round-bottom plates (Microfluor 2, Fisher Scientific) using the CLARIOstar microplate reader (BMG Labtech). To each well, 5 nM of fluoresceinlabeled tracer and 200 nM of STAT5 and/or STAT6 protein were added to a final volume of 100 μl in the assay buffer (PBS pH7.4+0.01% BGG+0.01% Tween-20, 2 mM DTT). The plate was mixed on a shaker for 15 m and incubated at room temperature for 1 h to reach equilibrium. […] All experimental data were analyzed using Prism 8.0 software (GraphPad Software), and the inhibition constants were determined by nonlinear curve fitting as the concentration of the STAT5 and/or STAT6 at which 50% of the ligand is bound.

Row | SMILES | Ki
12 | CC(C)(C)[C@H](NC(=O)c1cc2cc(C(F)(F)P(=O)(O)O)ccc2s1)C(=O)N1CCC[C@H]1C(=O)Nc1nccs1 [Compound 247, ((2-(((S)-3,3-dimethyl-1-oxo-1-((S)-2-(thiazol-2-ylcarbamoyl)pyrrolidin-1-yl)butan-2-yl)carbamoyl)benzo[b]thiophen-5-yl)difluoromethyl)phosphonic acid] | 1 to 10 µM
13 | CC(C)(C)[C@H](NC(=O)c1cc2cc(C(F)(F)P(=O)(O)O)ccc2s1)C(=O)N1CCC[C@H]1C(=O)Nc1ncc(CO)s1 [Compound 248, (difluoro(2-(((S)-1-((S)-2-((5-(hydroxymethyl)thiazol-2-yl)carbamoyl)pyrrolidin-1-yl)-3,3-dimethyl-1-oxobutan-2-yl)carbamoyl)benzo[b]thiophen-5-yl)methyl)phosphonic acid] | > 10 µM
14 | CC(C)(C)[C@H](NC(=O)c1cc2cc(C(F)(F)P(=O)(O)O)ccc2s1)C(=O)N1CCC[C@H]1C(=O)Nc1ncc(C2CCOCC2)s1 [Compound 249, ((2-(((S)-3,3-dimethyl-1-oxo-1-((S)-2-((5-(tetrahydro-2H-pyran-4-yl)thiazol-2-yl)carbamoyl)pyrrolidin-1-yl)butan-2-yl)carbamoyl)benzo[b]thiophen-5-yl)difluoromethyl)phosphonic acid] | 1 to 10 µM
